From patent US12662489B2 (Sitryx Therapeutics Limited, priority 2023, dated 2026)
pIC50: −log10 of the molar value.

Legend:
[1] = biological target: T1, MTHFD1 recombinant human enzyme (Homo sapiens, UniProt P11586); assay: MTHFD1 inhibition assay (NAD(P)H-Glo luminescence); settings: MTHFD1 IC50, recombinant human enzyme 200 nM, NADP, band
T1 sequence (P11586 2-291 limits assumed): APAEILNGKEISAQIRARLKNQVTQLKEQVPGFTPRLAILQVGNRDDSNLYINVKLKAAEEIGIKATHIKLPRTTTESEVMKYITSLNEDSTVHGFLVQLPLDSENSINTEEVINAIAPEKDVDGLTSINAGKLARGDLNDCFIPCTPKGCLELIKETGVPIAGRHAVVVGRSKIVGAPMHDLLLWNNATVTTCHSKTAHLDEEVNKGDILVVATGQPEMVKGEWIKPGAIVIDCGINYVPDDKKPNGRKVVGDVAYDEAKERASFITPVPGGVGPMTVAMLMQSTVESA

[2] = biological target: T2, MTHFD2 recombinant human enzyme (Homo sapiens, UniProt P13995); assay: MTHFD2 inhibition assay (NAD(P)H-Glo luminescence); settings: for MTHFD1/MTHFD2 IC50 ratio: selectivity of MTHFD2 inhibition over MTHFD1, band
T2 sequence (P13995 36-350): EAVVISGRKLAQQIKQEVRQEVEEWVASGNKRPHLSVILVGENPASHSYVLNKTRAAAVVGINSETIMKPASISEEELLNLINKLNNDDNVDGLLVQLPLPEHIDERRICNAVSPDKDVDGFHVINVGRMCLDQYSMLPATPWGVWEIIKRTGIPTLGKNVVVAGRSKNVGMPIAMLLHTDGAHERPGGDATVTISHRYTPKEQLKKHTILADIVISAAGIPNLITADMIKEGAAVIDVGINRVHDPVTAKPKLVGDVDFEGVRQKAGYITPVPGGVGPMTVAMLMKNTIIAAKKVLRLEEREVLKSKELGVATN

Row | pIC50 [1] | pIC50 [2] | MTHFD1/MTHFD2 IC50 ratio [2] | SMILES
1 | < 5.30 | 6.00 to 7.00 | G (^ 3 to 9.0) | COC[C@H]1CN(c2ccc3c4c(c(=O)oc3c2C)CN(C(=O)c2cc(N3CC5CC5C3)c(C(=O)NS(=O)(=O)N3CCCC3)c(C(F)(F)F)c2)CC4)CCN1C (stereo partly drawn) [Example 112, 2-(3-azabicyclo[3.1.0]hexan-3-yl)-4-(8-((R)-3-(methoxymethyl)-4-methylpiperazin-1-yl)-7-methyl-5-oxo-1,3,4,5-tetrahydro-2H-chromeno[3,4-c]pyridine-3-carbonyl)-N-(pyrrolidin-1-ylsulfonyl)-6-(trifluoromethyl)benzamide]
2 | 8.00 to 9.00 | 7.00 to 8.00 | F (<3) | COC[C@H]1CN(c2ccc3c4c(c(=O)oc3c2C)CN(C(=O)c2ccc(C(=O)NS(=O)(=O)N(C)C)c(OC3CCCC3)c2F)CC4)CCN1C [Example 5, (R)-2-(cyclopentyloxy)-N-(N,N-dimethylsulfamoyl)-3-fluoro-4-(8-(3-(methoxymethyl)-4-methylpiperazin-1-yl)-7-methyl-5-oxo-1,3,4,5-tetrahydro-2H-chromeno[3,4-c]pyridine-3-carbonyl)benzamide]
3 | 6.00 to 7.00 | 7.00 to 8.00 | G (^ 3 to 9.0) | COC[C@H]1CN(c2ccc3c4c(c(=O)oc3c2C)CN(C(=O)c2cc(N3CCC3)c(C(=O)NS(=O)(=O)N3CC5CC5C3)cc2F)CC4)CCN1C (stereo partly drawn) [Example 203, N-((3-azabicyclo[3.1.0]hexan-3-yl)sulfonyl)-2-(azetidin-1-yl)-5-fluoro-4-(8-((R)-3-(methoxymethyl)-4-methylpiperazin-1-yl)-7-methyl-5-oxo-1,3,4,5-tetrahydro-2H-chromeno[3,4-c]pyridine-3-carbonyl)benzamide]
4 | 5.30 to 6.00 | 7.00 to 8.00 | H (>9.0 to 30) | COC[C@H]1CN(c2cc(Cl)c3c4c(c(=O)oc3c2C)CN(C(=O)c2ccc(C(=O)NS(=O)(=O)N3CCC[C@H]3COC)c(OC)c2)CC4)CCN1C [Example 283, 4-(10-chloro-8-((R)-3-(methoxymethyl)-4-methylpiperazin-1-yl)-7-methyl-5-oxo-1,3,4,5-tetrahydro-2H-chromeno[3,4-c]pyridine-3-carbonyl)-2-methoxy-N-(((S)-2-(methoxymethyl)pyrrolidin-1-yl)sulfonyl)benzamide]
5 | 7.00 to 8.00 | 7.00 to 8.00 | F (<3) | CCOc1c(C(=O)NS(=O)(=O)N(C2CC2)C2CC2)ccc(C(=O)N2CCc3c(c(=O)oc4c(C)c(N5CCN(C)[C@@H](COC)C5)cc(C)c34)C2)c1F [Example 231]
6 | 6.00 to 7.00 | 7.00 to 8.00 | H (>9.0 to 30) | COC[C@H]1CN(c2cc(C)c3c4c(c(=O)oc3c2C)CN(C(=O)c2cc(N(C)C)c(C(=O)NS(=O)(=O)N3CCC[C@@H]3C(F)(F)F)cc2F)CC4)CCN1C [Example 287, 2-(dimethylamino)-5-fluoro-4-(8-((R)-3-(methoxymethyl)-4-methylpiperazin-1-yl)-7,10-dimethyl-5-oxo-1,3,4,5-tetrahydro-2H-chromeno[3,4-c]pyridine-3-carbonyl)-N-(((R)-2-(trifluoromethyl)pyrrolidin-1-yl)sulfonyl)benzamide]
7 | 8.00 to 9.00 | 8.00 to 9.00 | F (<3) | COC[C@H]1CN(c2cc(C)c3c4c(c(=O)oc3c2C)CN(C(=O)c2ccc(C(=O)NS(=O)(=O)N(C)C)c(OC3CCCC3)c2F)CC4)CCN1C [Example 43, (R)-2-(cyclopentyloxy)-N-(N,N-dimethylsulfamoyl)-3-fluoro-4-(8-(3-(methoxymethyl)-4-methylpiperazin-1-yl)-7,10-dimethyl-5-oxo-1,3,4,5-tetrahydro-2H-chromeno[3,4-c]pyridine-3-carbonyl)benzamide]
8 | 5.30 to 6.00 | 7.00 to 8.00 | J (>30) | COC[C@H]1CN(c2cc(F)c3c4c(c(=O)oc3c2C)CN(C(=O)c2cc(OC)c(C(=O)NS(=O)(=O)N3CCCC3)cc2F)CC4)CCN1C [Example 309, (R)-5-fluoro-4-(10-fluoro-8-(3-(methoxymethyl)-4-methylpiperazin-1-yl)-7-methyl-5-oxo-1,3,4,5-tetrahydro-2H-chromeno[3,4-c]pyridine-3-carbonyl)-2-methoxy-N-(pyrrolidin-1-ylsulfonyl)benzamide]
9 | 7.00 to 8.00 | 7.00 to 8.00 | F (<3) | COC[C@H]1CN(c2cc(C)c3c4c(c(=O)oc3c2C)CN(C(=O)c2ccc(C(=O)NS(=O)(=O)N3CCCC3)c(OC3C[C@@H]5C[C@@H]5C3)c2)CC4)CCN1C (mixture of isomers) [Example 109, 2-(bicyclo[3.1.0]hexan-3-yloxy)-4-(8-((R)-3-(methoxymethyl)-4-methylpiperazin-1-yl)-7,10-dimethyl-5-oxo-1,3,4,5-tetrahydro-2H-chromeno[3,4-c]pyridine-3-carbonyl)-N-(pyrrolidin-1-ylsulfonyl)benzamide]

Row | SMILES | pIC50 [1] | pIC50 [2] | MTHFD1/MTHFD2 IC50 ratio [2]
10 | COC[C@H]1CN(c2cc(Cl)c3c4c(c(=O)oc3c2C)CN(C(=O)c2cc(OC3CC3)c(C(=O)NS(=O)(=O)N3C5CCC3COC5)cc2F)CC4)CCN1C [Example 307, N-((3-oxa-8-azabicyclo[3.2.1]octan-8-yl)sulfonyl)-4-(10-chloro-8-((R)-3-(methoxymethyl)-4-methylpiperazin-1-yl)-7-methyl-5-oxo-1,3,4,5-tetrahydro-2H-chromeno[3,4-c]pyridine-3-carbonyl)-2-cyclopropoxy-5-fluorobenzamide] | 5.30 to 6.00 | 7.00 to 8.00 | –
11 | COC[C@H]1CN(c2cc(C)c3c4c(c(=O)oc3c2C)CN(C(=O)c2ccc(C(=O)NS(=O)(=O)C3(C)CC3)c(N3C5CCC3CC5)c2F)CC4)CCN1C [Example 73, (R)-2-(7-azabicyclo[2.2.1]heptan-7-yl)-3-fluoro-4-(8-(3-(methoxymethyl)-4-methylpiperazin-1-yl)-7,10-dimethyl-5-oxo-1,3,4,5-tetrahydro-2H-chromeno[3,4-c]pyridine-3-carbonyl)-N-((1-methylcyclopropyl)sulfonyl)benzamide] | 8.00 to 9.00 | 8.00 to 9.00 | –
12 | Cc1c(N2CCN3CCOC[C@H]3C2)cc(C)c2c3c(c(=O)oc12)CN(C(=O)c1ccc(C(=O)NS(=O)(=O)N2CCCC2)c(OC2CCC2)c1)CC3 [Example 21, (R)-2-cyclobutoxy-4-(8-(hexahydropyrazino[2,1-c][1,4]oxazin-8(1 H)-yl)-7,10-dimethyl-5-oxo-1,3,4,5-tetrahydro-2H-chromeno[3,4-c]pyridine-3-carbonyl)-N-(pyrrolidin-1-ylsulfonyl)benzamide] | 6.00 to 7.00 | 6.00 to 7.00 | F (<3)
13 | COC[C@H]1CN(c2ccc3c4c(c(=O)oc3c2C)CN(C(=O)c2ccc(C(=O)NS(=O)(=O)N3[C@H](C)CC[C@H]3C)c(OC3CCC3)c2F)CC4)CCN1C [Example 177, 2-cyclobutoxy-N-(((2R,5R)-2,5-dimethylpyrrolidin-1-yl)sulfonyl)-3-fluoro-4-(8-((R)-3-(methoxymethyl)-4-methylpiperazin-1-yl)-7-methyl-5-oxo-1,3,4,5-tetrahydro-2H-chromeno[3,4-c]pyridine-3-carbonyl)benzamide] | 6.00 to 7.00 | 6.00 to 7.00 | F (<3)
14 | CCOc1c(C(=O)NS(=O)(=O)N2C3CCCC2CC3)ccc(C(=O)N2CCc3c(c(=O)oc4c(C)c(N5CCN(C)[C@@H](COC)C5)cc(C)c34)C2)c1F [Example 234] | 7.00 to 8.00 | 7.00 to 8.00 | F (<3)
